Data taken from US20110178072A1, “STEREOSPECIFICITY OF METHYLSULFINYL REDUCTION” (priority 2008, published 2011).

How the values were obtained:
[1] = tested on: SK-Hep1 cell extracts; experiment: Specific activity of SK-Hep1 cell extracts for reduction of free Met sulfoxides; format: biochemical, human; conditions: for Specific activity for each Met-O: SK-Hep1, ± standard deviations from 3 independent experiments
Description: HPLC analysis of media samples-Cells were plated in 6-well plates at 7.5×10^4 cells/well in 1.5 mL of regular DMEM medium. After 24 hours, cells were washed with PBS and the medium was changed to a modified DMEM containing Met, Met-SO, Met-RO, or Met-RSO (0.1 mM of each amino acid). 90 μL of medium from each well was collected at 0, 24, 48, 72, 96 hours and mixed with 10 μL of 100% TCA. After incubation at 4° C. for 10 minutes and centrifugation at 13,000 rpm for 15 minutes, the supernatant (50 μL) was diluted 10 times with distilled water and prepared for OPA derivatization. OPA derivatization of amino acids and HPLC analysis was performed as described (Sharov, V. S., Ferrington, D. A., Squier, T. C., […]. (1999) FEBS Lett. 455, 247-250) with minor modifications. The derivatization reagent was freshly prepared as a stock solution (40 mg of o-phthalaldehyde, 1 mL of methanol, 50 μL, of 2-mercaptoehanol, 5 mL of 0.1 M Na2B4O7, pH 9.5) at room temperature in a capped amber vial. Sample solutions (2-5 μL) were mixed with the OPA derivatization reagent to 100 μL, final volume. Following a 2 minute reaction at room temperature, the mixture was fractionated on a Zorbax Eclipse XDB-C8 column (4.6×150 mm). Changes in Met levels in the fRMsr activity assay were similarly quantified. […] Activity assays of fRMsr-Reaction mixture (40 μL) included 50 mM DTT, 1 mM substrate (Met-RO or Met-SO), and purified enzyme or cell lysate prepared by treatment with […] cell lysis reagent (Sigma). 20 μL of the reaction mixture was mixed with 2 μL of TCA and subjected to OPA derivatization as described above and then injected onto the column to measure endogenous Met level in the samples. An additional 20 μL from the same original reaction mixture were incubated at 37° C. for 30 minutes and then subjected to OPA derivatization by the same procedure using TCA. After derivatization of the sample (2-5 μL) by adding OPA solution to 100 μL as a final volume, 50 μL of the mixture were subjected to an HPLC separation as described above.

[2] = tested on: SK-Hep1 cells; experiment: Growth and morphology of SK-Hep1 cells in Met-free DMEM supplemented with Met or Met sulfoxides (MTS proliferation assay, microscopy); format: cell-based, human; conditions: for Growth of SK-Hep1 cells: Met-free DMEM supplemented with 0.1 mM of the compound; for Morphology of SK-Hep1 cells: after 96 hours on medium with 0.1 mM of the compound
Description: Cell culture—SK-Hep1 (ATCC: HTB-52™) and fRMsr-transfected SK-Hep1 cells were cultured in DMEM or Met-free DMEM (GIBCO) media, supplemented with 0.1 mM Met, 0.1 mM Met-RO, 0.1 mM Met-SO, or 0.1 mM Met-RSO. […] Thus, 0.1 mM Met sulfoxides were used in the experiments described below. Cell culture experiments, with the exception of a proliferation assay, were carried out in 6-well plates, and cells were maintained at 37° C. in a 5% CO2 atmosphere. Proliferation Assay—Cell growth was quantified using colorimetric MTS assay (Promega). Cells in regular DMEM medium were plated in 96-well plates at 5×10^3 cells/well, washed with PBS, and specialized DMEM media were added that contained Met, Met-SO, Met-RO, or Met-RSO 24 hours after plating. To assay for cell proliferation, a tetrazolium compound [3-(4,5-dimethylthiazol-2-yl)-5-(3-carboxymethoxyphenyl)-2-(4-sulfophenyl)-2H-tetrazolium, inner salt; MTS] and an electron coupling reagent (phenazine methosulfate; PMS) were mixed according to the manufacturer's protocol and then 20 μL of the mixture were added to 100 μL of phenol red-excluded media that further replaced cell culture media. After 90 minutes of incubation at 37° C. in the atmosphere of 5% CO2, cell proliferation was measured at indicated time periods from 0 to 96 hours at 450 nm in a plate reader. Direct counting of viable cells using 0.2% trypan blue was done in 6-well plates. Microscopy—A Nikon TE-300 Widefield Microscope was used to prepare images of SK-Hep1 cells grown on different Met and Met sulfoxide media. Microscopy analyses were carried out in the University of Nebraska Microscopy Core Facility.

[3] = tested on: yeast fRMsr-transfected SK-Hep1 cells; experiment: Growth and morphology of yeast fRMsr-expressing SK-Hep1 cells on Met sulfoxide media; format: cell-based, human; conditions: 0.1 mM
Description: Proliferation Assay-Cell growth was quantified using colorimetric MTS assay (Promega). Cells in regular DMEM medium were plated in 96-well plates at 5×10^3 cells/well, washed with PBS, and specialized DMEM media were added that contained Met, Met-SO, Met-RO, or Met-RSO 24 hours after plating. To assay for cell proliferation, a tetrazolium compound [3-(4,5-dimethylthiazol-2-yl)-5-(3-carboxymethoxyphenyl)-2-(4-sulfophenyl)-2H-tetrazolium, inner salt; MTS] and an electron coupling reagent (phenazine methosulfate; PMS) were mixed according to the manufacturer's protocol and then 20 μL of the mixture were added to 100 μL of phenol red-excluded media that further replaced cell culture media. After 90 minutes of incubation at 37° C. in the atmosphere of 5% CO2, cell proliferation was measured at indicated time periods from 0 to 96 hours at 450 nm in a plate reader. Direct counting of viable cells using 0.2% trypan blue was done in 6-well plates. Transfection of […] into SK-Hep1 cells-[…]-tag sequence was cloned at the C-terminus of […] sequence was inserted into a mammalian expression vector, pCI-neo (Promega), and the resulting construct was verified by DNA sequencing. […] To establish a stable cell line, cells were selected in the presence of 800 μg/mL G418 sulfate (Promega), and further maintained in the presence of 400 μg/mL G418 sulfate. […]

[4] = tested on: selenoproteins; experiment: 75Se metabolic labeling of SK-Hep1 cells grown on Met and Met sulfoxide media; format: cell-based, human; conditions: 0.1 mM of each amino acid
Description: ^75 Se Metabolic labeling—SK-Hep1 cells were plated in 6-well plates at 7.5×10^4 cells/well in 1.5 mL of regular DMEM medium. After 24 hours, cells were washed with PBS and the medium was changed to modified DMEM media containing Met, Met-SO, Met-RO, or Met-RSO (0.1 mM of each amino acid). 0.01 mCi of freshly neutralized [^75Se]selenious acid (specific activity 1,000 Ci/mmol, University of Missouri Research Reactor) was added in each well at 48 hours after changing the medium and cells were incubated at 37° C. for 24 hours in 5% CO2 atmosphere, followed by harvesting the cells. Cell extracts (30 μg of total protein) were electrophoresed on 10% Bis-Tris gels and transferred onto PVDF membranes (Invitrogen). The ^75Se radioactivity pattern was visualized by using a PhosphorImager (GE Health Care).

Structure (SMILES)	Specific activity for each Met-O [1]	Specific activity of SK-Hep1 cell extracts for reduction of free Met sulfoxide [1]	Growth of SK-Hep1 cells [2]	Morphology of SK-Hep1 cells [2]	Growth of fRMsr-transfected cells [3]	Selenoprotein patterns (75Se labeling) [4]
C[S@+]([O-])CC[C@H](N)C(=O)O [Met-SO, methionine-S-sulfoxide]	38.6 ± 3.6 pmol/min/mg	≈ 38.6 pmol/min/mg protein	could also proliferate	resembled those maintained in the presence of Met	essentially indistinguishable from that of cells grown in the presence of Met	No difference was observed
C[S@@+]([O-])CC[C@H](N)C(=O)O [Met-RO, methionine-R-sulfoxide]	ND* (A signal corresponding to specific activity less than 5 pmol/min/mg is shown as ND (Not Detectable))	No free Met-RO reductase activity was detected	did not support growth	long and narrow	essentially indistinguishable from that of cells grown in the presence of Met	No difference was observed
